Measurements published in patent publication US20240043373A1, “COMPOSITIONS AND METHODS FOR TREATING AMYLOID-RELATED CONDITIONS” (The Regents of the University of California, priority 2020, published 2024).
“Also recorded” adds a separate entry of the source.

Assays:
BAP31 [1] = assay: Quantitative global proteomics (LC-MS/MS) of treated SH-SY5Y cells; assay type: cell-based, human; conditions: treated vs vehicle (DMSO) SH-SY5Y cells
Protocol: Tryptic peptides were subsequently labeled with isobaric tandem mass tags (ThermoFischer Scientific) to provide relative quantitation between samples, and then fractionated using high pH reverse-phase chromatography for increased proteome coverage. The multiplexed samples were analyzed by liquid chromatography tandem mass spectrometry (LC-MS/MS).

sAPPα [2] = assay: sAPPα AlphaLISA in SH-SY5Y cells; assay type: cell-based, human; conditions: for sAPPα in SH-SY5Y cells: SH-SY5Y 150 K/well, 1, 5, 10 and 50 μM, 24 hours, AlphaLISA; for sAPPα levels after 24 h: SH-SY5Y, after 24 h (FIG. 12B)
Protocol: Media (20 μL) was collected every 2 h for 24 h (plate was shaken prior to media collection to disburse sAPPα) from each treatment group.

BAP31 [3] = assay: BAP31 immunoblot (WB) in SH-SY5Y cells; assay type: cell-based, human; conditions: SH-SY5Y after treatment
sAPPα [4] = assay: Primary HTS: sAPPα AlphaLISA in CHO-7W cells; assay type: cell-based, Chinese Hamster
Protocol: A HTS of portions of the UCLA compound library was undertaken. The primary HTS was carried out at the MSSR facility at UCLA using CHO-7W cells. An initial screen of approximately 7000 compounds was performed using the NIH and NPW libraries, 3 plates from the targeted libraries (TAR), full LOPAC and NKIL libraries, and four plates from the Emerald/Synergy (ES) library. CHO-7W cells (5 K/well) were treated with 5 μM compounds for 48 h followed by collection of media and determination of sAPPα using an AlphaLISA.

RTN3 monomer = RTN3 monomer immunoblot (WB) in SH-SY5Y cells
p-GSK3β (Ser 9) [5] = assay: phospho GSK3β / total GSK3β western blot in SH-SY5Y cells; assay type: cell-based, human; conditions: SH-SY5Y 100 k/well, 5 uM
Excerpt: FIG. 14B is a graph showing each blot normalized to actin levels.
FIG. 16C is a graph decpiting the normalized to actin levels and the ratio of (phosphor-GSK3β/Actin) to (Total-GSK3β/Actin) from the Western blots in FIGS. 16A & B, calculated by densitometry.

p-GSK3β (Ser 9) [6] = conditions: Deng et al., 2015; used at 25 nM as positive control; cited from earlier work
RTN3 = assay: Oral treatment of ApoE4:5xFAD mice, brain RTN3; assay type: in vivo; conditions: E4:FAD mice, orally 4 mg/kg for 18 days
p-GSK3β = assay: Oral treatment of ApoE4:5xFAD mice, brain p-GSK3β; assay type: in vivo; conditions: E4:FAD mice, orally 4 mg/kg for 18 days
sAPPα [7] = assay: Oral treatment of ApoE4:5xFAD mice, brain sAPPα; assay type: in vivo; conditions: E4:FAD mice, orally 4 mg/kg for 18 days

CC(Cc1ccccc1)(NC(=O)CN)c1ccccc1 (centres unmarked) [DDL-401, Remacemide]
levels of tryptic peptides corresponding to BAP31 (MS/MS) (BAP31 [1]): increase in the levels of tryptic peptides | sAPPα in SH-SY5Y cells (sAPPα [2]): significantly (p>0.01) increased; also recorded: increased sAPPα | sAPPα in SH-SY5Y cells (sAPPα [2]; listed as Remacemide): sAPPα increase | time course of sAPPα in media (sAPPα [2]; SH-SY5Y 400,000/well, 5 μM, media collected every 2 h for 24 h, vs DMSO): time dependent increase in sAPPα | sAPPα levels after 24 h (sAPPα [2]): significantly increased | BAP31 by WB (BAP31 [3]): no significant increase | enhancement of sAPPα in CHO-7W cells (sAPPα [4]; CHO cells stably expressing human APP, initial HTS): enhancer of sAPPα | percent increase in sAPPα levels normalized to control in HTS (sAPPα [4]; CHO-7W cells 5 K/well, 5 μM compound, 48 h, AlphaLISA): > 25% | concentration giving a modest increase in RTN3 monomer levels (RTN3 monomer; SH-SY5Y, WB): ≥ 10 µM

COc1cc(C(=O)OCCCN2CCCN(CCCOC(=O)c3cc(OC)c(OC)c(OC)c3)CC2)cc(OC)c1OC (racemic) [DDL-402, Dilazep]
sAPPα levels after 24 h (sAPPα [2]): significantly increased | ratio (phospho-GSK3β/Actin) to (Total-GSK3β/Actin) (p-GSK3β (Ser 9) [5]; 18 h): trend to increase in p-GSK3β

sAPPα: recombinant sAPPα (25 nM) used as a positive control for GSK3β phosphorylation
phosphorylation of GSK3β (positive control, literature) (p-GSK3β (Ser 9) [6]): increase the phosphorylation of GSK3β

CN1[C@@H]2CC[C@H]1C[C@@H](OC(=O)c1c[nH]c3ccccc13)C2 [F03, Tropisetron]
RTN3 levels in the brain (RTN3): slightly enhanced | phosphorylation of GSK3β (p-GSK3β (Ser 9) [5]; 12 h or 18 h): increases phosphorylation of GSK3β | p-GSK3β in brain (p-GSK3β): bigger increase | sAPPα in brain (sAPPα [7]): slight increase | level of RTN3 monomer (~25 kD) (RTN3 monomer; SH-SY5Y 100 k/well, 5 uM, 12 h, vs DMSO or untreated): trended to increase
